Assay results taken from patent EP2951180B1, “2,6,7,8 SUBSTITUTED PURINES AS HDM2 INHIBITORS” (Merck Sharp & Dohme Corp., priority 2013, dated 2014).
Read-outs that look alike come from different tables or passages of the source.

Molecular target: T1, HDM2 (Homo sapiens, UniProt Q00987)
T1 construct: Thioredoxin (N); made in house; host or cells: E. coli strain BL21(DE3)Rosetta
Assay: HDM2 FRET assay (inhibition of binding of FITC labeled p53-pocket peptide to HDM2)
Conditions: read-out: FRET IC50
Procedure, shortened: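 Final: 0.5 nM His-HDM2, 3 nM FITC peptide, 0.25 nM Tb anti-His Ab; PBS, 0.01% BSA, 0.01% Tween-20; 0.1% DMSO.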

T1 sequence (Q00987 17-125): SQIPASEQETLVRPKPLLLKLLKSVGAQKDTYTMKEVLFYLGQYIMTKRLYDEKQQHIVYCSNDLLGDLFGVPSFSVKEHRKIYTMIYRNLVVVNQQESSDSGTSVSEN

Question: With `CCC1=CCC(Cn2c(-c3cc(C(C)C)ccn3)nc3nc(C(=O)O)nc(N[C@H](C)C4CCC4)c32)CC1` (stereo partly drawn) [Example 18.6, 6-(((R)-1-cyclobutylethyl)amino)-7-((4-ethylcyclohex-3-en-1-yl)methyl)-8-(4-isopropylpyridin-2-yl)-7H-purine-2-carboxylic acid] as the molecule, how does the IC50 (Table 18) read?
Answer: Its IC50 is 0.0159 µM.

Question: Which IC50 (Table 18) does the source give for `CCC1=CCC(Cn2c(-c3cc(C(C)C)ccn3)nc3nc(-c4noc(=O)[nH]4)nc(N[C@H](C)C4CCC4)c32)CC1` (stereo partly drawn) [Example 18.7, 3-(6-(((R)-1-cyclobutylethyl)amino)-7-((4-ethylcyclohex-3-en-1-yl)methyl)-8-(4-isopropylpyridin-2-yl)-7H-purin-2-yl)-1,2,4-oxadiazol-5(4H)-one] here?
Answer: Its IC50 is 0.044 µM.

Question: How did the IC50 (Table 18) turn out when `CC(C)c1ccnc(-c2nc3nc(C(=O)O)nc(N[C@H](C)C4CCC4)c3n2CC2CCC(C)(C)CC2)c1` [Example 18.8, (R)-6-((1-cyclobutylethyl)amino)-7-((4,4-dimethylcyclohexyl)methyl)-8-(4-isopropylpyridin-2-yl)-7H-purine-2-carboxylic acid] was run?
Answer: The IC50 was 0.0595 µM.

Question: With `CC(C)c1ccnc(-c2nc3nc(-c4noc(=O)[nH]4)nc(N[C@H](C)C4CCC4)c3n2CC2CCC(C)(C)CC2)c1` [Example 18.9, (R)-3-(6-((1-cyclobutylethyl)amino)-7-((4,4-dimethylcyclohexyl)methyl)-8-(4-isopropylpyridin-2-yl)-7H-purin-2-yl)-1,2,4-oxadiazol-5(4H)-one] as the molecule, how does the IC50 (Table 18) read?
Answer: Its IC50 is 0.394 µM.

Question: Which IC50 (Table 18) does the source give for `CC(C)c1ccnc(-c2nc3nc(C(=O)O)nc(N[C@H](C)C4CCC4)c3n2C[C@H]2CC[C@H](CF)CC2)c1` [Example 18.10, 6-(((R)-1-cyclobutylethyl)amino)-7-((trans-4-(fluoromethyl)cyclohexyl)methyl)-8-(4-isopropylpyridin-2-yl)-7H-purine-2-carboxylic acid] here?
Answer: The IC50 was 0.00938 µM.

Question: With `CC[C@H]1CC[C@H](Cn2c(-c3cccc(C)c3)nc3nc(C(=O)O)nc(N[C@H](C)C4CCC4)c32)CC1` [Example 18.15, 6-{[(1R)-1-cyclobutylethyl]amino}-7-[(trans-4-ethylcyclohexyl)methyl]-8-(3-methylphenyl)-7H-purine-2-carboxylic acid] as the molecule, how does the IC50 (Table 18) read?
Answer: Its IC50 is 0.201 µM.

Question: Which IC50 (Table 18) does the source give for `CC[C@H]1CC[C@H](Cn2c(-c3cc(C)ccc3OC)nc3nc(C(=O)O)nc(N[C@H](C)C4CCC4)c32)CC1` [Example 18.16, 6-{[(1R)-1-cyclobutylethyl]amino}-7-[(trans-4-ethylcyclohexyl)methyl]-8-(2-methoxy-5-methylphenyl)-7H-purine-2-carboxylic acid] here?
Answer: Its IC50 is 0.0318 µM.

Question: With `CC[C@H]1CC[C@H](Cn2c(N3CCCCC3)nc3nc(C(=O)O)nc(N[C@H](C)C4CCC4)c32)CC1` [Example 18.18, 6-{[(1R)-1-cyclobutylethyl]amino}-7-[(trans-4-ethylcyclohexyl)methyl]-8-piperidin-1-yl-7H-purine-2-carboxylic acid] as the molecule, how does the IC50 (Table 18) read?
Answer: Its IC50 is 0.0086 µM.

Question: How did the IC50 (Table 18) turn out when `CC[C@H]1CC[C@H](Cn2c(N3CCOCC3)nc3nc(C(=O)O)nc(N[C@H](C)C4CCC4)c32)CC1` [Example 18.19, 6-{[(1R)-1-cyclobutylethyl]amino}-7-[(trans-4-ethylcyclohexyl)methyl]-8-morpholin-4-yl-7H-purine-2-carboxylic acid] was run?
Answer: The IC50 was 0.0131 µM.

Question: With `CC[C@H]1CC[C@H](Cn2c(-c3cc(C(C)C)ccn3)nc3nc(-c4noc(=O)[nH]4)nc(N[C@H](C)C4CCC4)c32)CC1` [Example 18.20, 3-(6-{[(1R)-1-cyclobutylethyl]amino}-7-[(trans-4-ethylcyclohexyl)methyl]-8-[4-(1-methylethyl)pyridin-2-yl]-7H-purin-2-yl)-1,2,4-oxadiazol-5(4H)-one] as the molecule, how does the IC50 (Table 18) read?
Answer: The IC50 was 0.0157 µM.

Question: `CC[C@H]1CC[C@H](Cn2c(N3CCOC[C@H]3c3ccccc3)nc3nc(C(=O)O)nc(N[C@H](C)C4CCC4)c32)CC1` [Example 18.21, 6-{[(1R)-1-cyclobutylethyl]amino}-7-[(trans-4-ethylcyclohexyl)methyl]-8-[(3R)-3-phenylmorpholin-4-yl]-7H-purine-2-carboxylic acid] was tested. Which IC50 (Table 18) did it give?
Answer: The IC50 was 0.000548 µM.

Question: How did the IC50 (Table 18) turn out when `CC[C@H]1CC[C@H](Cn2c(N3CCOC[C@H]3c3ccccc3)nc3nc(-c4noc(=O)[nH]4)nc(N[C@H](C)C4CCC4)c32)CC1` [Example 18.22, 3-(6-{[(1R)-1-cyclobutylethyl]amino}-7-[(trans-4-ethylcyclohexyl)methyl]-8-[(3R)-3-phenylmorpholin-4-yl]-7H-purin-2-yl)-1,2,4-oxadiazol-5(4H)-one] was run?
Answer: The IC50 was 0.00386 µM.

Question: For `CCC1CC=C(Cn2c(-c3cc(C(C)C)ccn3)nc3nc(C(=O)O)nc(N[C@H](C)C4CCC4)c32)CC1` (stereo partly drawn) [Example 18.23, 6-{[(1R)-1-cyclobutylethyl]amino}-7-[(4-ethylcyclohex-1-en-1-yl)methyl]-8-[4-(1-methylethyl)pyridin-2-yl]-7H-purine-2-carboxylic acid], which IC50 (Table 18) is on record?
Answer: The IC50 was 0.0264 µM.

Question: With `CCC1=CCC(Cn2c(-c3cc(C(C)C)ccn3)nc3nc(C(=O)O)nc(N[C@H](C)C4CCC4)c32)CC1` (stereo partly drawn) [Example 18.24, 6-{[(1R)-1-cyclobutylethyl]amino}-7-[(4-ethylcyclohex-3-en-1-yl)methyl]-8-[4-(1-methylethyl)pyridin-2-yl]-7H-purine-2-carboxylic acid] as the molecule, how does the IC50 (Table 18) read?
Answer: Its IC50 is 0.0159 µM.

Question: How did the IC50 (Table 18) turn out when `CCC1=CCC(Cn2c(-c3cc(C(C)C)ccn3)nc3nc(-c4noc(=O)[nH]4)nc(N[C@H](C)C4CCC4)c32)CC1` (stereo partly drawn) [Example 18.25, 3-(6-{[(1R)-1-cyclobutylethyl]amino}-7-[(4-ethylcyclohex-3-en-1-yl)methyl]-8-[4-(1-methylethyl)pyridin-2-yl]-7H-purin-2-yl)-1,2,4-oxadiazol-5(4H)-one] was run?
Answer: Its IC50 is 0.044 µM.

Question: With `Cc1cccc(-c2nc3nc(C(=O)O)nc(N[C@H](C)C4CCC4)c3n2C[C@H]2CC[C@@H](C(F)(F)F)CC2)c1` [Example 18.29, 6-{[(1R)-1-cyclobutylethyl]amino}-8-(3-methylphenyl)-7-{[cis-4-(trifluoromethyl)cyclohexyl]methyl}-7H-purine-2-carboxylic acid] as the molecule, how does the IC50 (Table 18) read?
Answer: The IC50 was 0.677 µM.

Question: Which IC50 (Table 18) does the source give for `CC(C)c1ccnc(-c2nc3nc(-c4noc(=O)[nH]4)nc(N[C@H](C)C4CCC4)c3n2C[C@H]2CC[C@H](C(F)(F)F)CC2)c1` [Example 18.30, 3-(6-{[(1R)-1-cyclobutylethyl]amino}-8-[4-(1-methylethyl)pyridin-2-yl]-7-{[trans-4-(trifluoromethyl)cyclohexyl]methyl}-7H-purin-2-yl)-1,2,4-oxadiazol-5(4H)-one] here?
Answer: Its IC50 is 0.013 µM.

Question: `CC([C@H]1CC[C@H](C)CC1)n1c(N2CCOC3CCCC32)nc2nc(-c3n[nH]c(=O)o3)nc(N[C@H](C)C3CCC3)c21` (stereo partly drawn) [Example 18.44, 5-(6-{ [(1R)-1-cyclobutylethyl]amino}-8-(hexahydrocyclopenta[b] [1,4]oxazin-4(4aH)-yl)-7-[1-(trans-4-methylcyclohexyl)ethyl]-7H-purin-2-yl)-1,3,4-oxadiazol-2(3H)-one] was tested. Which IC50 (Table 18) did it give?
Answer: The IC50 was 0.00537 µM.

Question: How did the IC50 (Table 18) turn out when `CC([C@H]1CC[C@H](C)CC1)n1c(N2CCC[C@H]2C(F)(F)F)nc2nc(-c3noc(=O)[nH]3)nc(-c3cncc(Cl)c3)c21` (stereo partly drawn) [Example 18.49, 3-{6-(5-chloropyridin-3-yl)-7-[1-(trans-4-methylcyclohexyl)ethyl]-8-[(2S)-2-(trifluoromethyl)pyrrolidin-1-yl]-7H-purin-2-yl}-1,2,4-oxadiazol-5(4H)-one] was run?
Answer: The IC50 was 0.00067 µM.

Question: With `C[C@@H](Nc1nc(-c2noc(=O)[nH]2)nc2nc(Sc3ccccc3)n(C[C@H]3CC[C@H](C)CC3)c12)C1CCC1` [Example 19.1, 3-[6-{[(1R)-1-cyclobutylethyl]amino}-7-[(trans-4-methylcyclohexyl)methyl]-8-(phenylsulfanyl)-7H-purin-2-yl]-1,2,4-oxadiazol-5(4H)-one] as the molecule, how does the IC50 (Table 19) read?
Answer: Its IC50 is 0.000763 µM.

Question: With `C[C@@H](Nc1nc(-c2noc(=O)[nH]2)nc2nc([S+]([O-])c3ccccc3)n(C[C@H]3CC[C@H](C)CC3)c12)C1CCC1` (stereo partly drawn) [Example 19.2, 3-[6-{[(1R)-1-cyclobutylethyl]amino}-7-[(trans-4-methylcyclohexyl)methyl]-8-(phenylsulfinyl)-7H-purin-2-yl]-1,2,4-oxadiazol-5(4H)-one] as the molecule, how does the IC50 (Table 19) read?
Answer: The IC50 was 0.00177 µM.

Question: With `C[C@@H](Nc1nc(-c2noc(=O)[nH]2)nc2nc(S(=O)(=O)c3ccccc3)n(C[C@H]3CC[C@H](C)CC3)c12)C1CCC1` [Example 19.3, 3-[6-{[(1R)-1-cyclobutylethyl]amino}-7-[(trans-4-methylcyclohexyl)methyl]-8-(phenylsulfonyl)-7H-purin-2-yl]-1,2,4-oxadiazol-5(4H)-one] as the molecule, how does the IC50 (Table 19) read?
Answer: The IC50 was 0.000943 µM.

Question: For `C[C@H]1CC[C@H](Cn2c(SC3CCCC3)nc3nc(-c4n[nH]c(=O)o4)nc(-c4cncc(Cl)c4)c32)CC1` [Example 19.4, 5-{6-(5-chloropyridin-3-yl)-8-(cyclopentylsulfanyl)-7-[(trans-4-methylcyclohexyl)methyl]-7H-purin-2-yl}-1,3,4-oxadiazol-2(3H)-one], which IC50 (Table 19) is on record?
Answer: Its IC50 is 0.00305 µM.

Question: With `C[C@H]1CC[C@H](Cn2c(S(=O)(=O)C3CCCC3)nc3nc(-c4n[nH]c(=O)o4)nc(-c4cncc(Cl)c4)c32)CC1` [Example 19.5, 5-{6-(5-chloropyridin-3-yl)-8-(cyclopentylsulfonyl)-7-[(trans-4-methylcyclohexyl)methyl]-7H-purin-2-yl}-1,3,4-oxadiazol-2(3H)-one] as the molecule, how does the IC50 (Table 19) read?
Answer: The IC50 was 0.00583 µM.

Question: Which IC50 (Table 19) does the source give for `C[C@H]1CC[C@H](Cn2c(Sc3ccccc3)nc3nc(-c4n[nH]c(=O)o4)nc(-c4cncc(Cl)c4)c32)CC1` [Example 19.6, 5-[6-(5-chloropyridin-3-yl)-7-[(trans-4-methylcyclohexyl)methyl]-8-(phenylsulfanyl)-7H-purin-2-yl]-1,3,4-oxadiazol-2(3H)-one] here?
Answer: Its IC50 is 0.00314 µM.

Question: `C[C@@H](Nc1nc(C(=O)O)nc2nc(C3(c4ccccc4)CCC3)n(C[C@H]3CC[C@H](C)CC3)c12)C1CCC1` [Example 20.1, 6-{[(1R)-1-cyclobutylethyl]amino}-7-[(trans-4-methylcyclohexyl)methyl]-8-(1-phenylcyclobutyl)-7H-purine-2-carboxylic acid] was tested. Which IC50 (Table 20) did it give?
Answer: Its IC50 is 0.00146 µM.
